Source: patent US9474279B2, “Methods of controlling insects” (Syngenta Participations AG, priority 2012, dated 2016)

How the values were obtained:
Format in all cases: in vivo
[1] = tested on: Nilaparvata lugens (Brown Plant Hopper); experiment: Nilaparvata lugens (Brown Plant Hopper) rice seedling spray test, mortality; conditions: N3 nymphs, mortality 6-12 days after treatment
Method: Nilaparvata lugens (Brown Plant Hopper) Rice seedlings are treated with the diluted test solutions in a spray chamber. After drying, plants are infested with 20 N3 nymphs (2 replicates). 6-12 days after the treatment samples are checked for mortality

[2] = tested on: Chilo suppressalis (Rice Stem Borer); experiment: Chilo suppressalis (Rice Stem Borer) treated rice leaf petri dish test, mortality; conditions: L2 larvae, mortality 5 days after treatment
Method: Chilo suppressalis (Rice Stem Borer) Rice seedlings are treated and after drying the leaves are cut and transferred into a petri dish coated with wet filter paper. 10 larvae (L2) are added and the dish is covered with a filter tissue and a plastic lid. 5 days after treatment the percentage mortality is assessed (3 replicates per concentration).

[3] = tested on: Nephotettix virescens (Green Leafhopper); experiment: Nephotettix virescens (Green Leafhopper) rice seedling spray test, mortality; conditions: N5 nymphs, mortality 5 days after treatment
Method: […] Nephotettix virescens (Green Leafhopper) Rice seedlings are treated with the diluted test solutions in a spray chamber. After drying, plants are infested with 10 N5 nymphs (3 replicates). 5 days after the treatment samples are checked for mortality.

Compound	Control/% ([1]; rate 12.5 ppm)	Control/% ([1]; rate 25 ppm)	Control/% ([1]; rate 50 ppm)	other results
Cc1cc(C2=NO[C@@](c3cc(Cl)cc(Br)c3)(C(F)(F)F)C2)ccc1C(=O)N[C@@H]1CON(CC(F)(F)F)C1=O [Compound A17]	100%	100%	100%	–
CCN1OC[C@@H](NC(=O)c2ccc(C3=NO[C@@](c4cc(Cl)cc(Cl)c4)(C(F)(F)F)C3)cc2C(F)(F)F)C1=O [Compound A28]	0%	50%	95%	–
CCN1OC[C@@H](NC(=O)c2ccc(C3=NO[C@@](c4cc(Cl)c(Cl)c(Cl)c4)(C(F)(F)F)C3)cc2C)C1=O [Compound A35]	93%	100%	98%	–
CCN1OCC(NC(=O)c2ccc(C3=NOC(c4cc(Cl)c(F)c(Cl)c4)(C(F)(F)F)C3)cc2C)C1=O (mixture of isomers) [Compound A8]	100%	100%	100%	–
Cc1cc(C2=NCC(c3cc(Cl)cc(Cl)c3)(C(F)(F)F)C2)ccc1C(=O)NC1CON(CC(F)(F)F)C1=O (stereo not drawn) [Compound B3]	100%	100%	100%	–
CCN1OCC(NC(=O)c2ccc(C3=NOC(c4cc(Cl)c(Cl)c(Cl)c4)(C(F)(F)F)C3)cc2C)C1=O (mixture of isomers) [Compound A6]	100%	100%	100%	–
CCN1OC[C@@H](NC(=O)c2ccc(C3=NO[C@@](c4cc(Cl)cc(Br)c4)(C(F)(F)F)C3)cc2C)C1=O [Compound A16]	95%	97%	98%	–
CCN1OC[C@@H](NC(=O)c2ccc(C3=NO[C@@](c4cc(Cl)cc(Cl)c4)(C(F)(F)F)C3)cc2Br)C1=O [Compound A34]	98%	100%	100%	–
Cc1cc(C2=NO[C@@](c3cc(Cl)c(Cl)c(Cl)c3)(C(F)(F)F)C2)ccc1C(=O)N[C@@H]1CON(CC(F)(F)F)C1=O [Compound A13]	75%	100%	98%	–
Cc1cc(C2=NOC(c3cc(Cl)cc(Cl)c3)(C(F)(F)F)C2)ccc1C(=O)NC1CON(C)C1=O (mixture of isomers) [Compound A5]	0%	65%	98%	–
CCN1OCC(NC(=O)c2ccc(C3=NOC(c4cc(C(F)(F)F)c(Cl)c(C(F)(F)F)c4)(C(F)(F)F)C3)cc2C)C1=O (mixture of isomers) [Compound A10]	100%	100%	100%	–
Cc1cc(C2=NOC(c3cc(Cl)cc(Cl)c3)(C(F)(F)F)C2)ccc1C(=O)NC1CON(CC(F)(F)F)C1=O (mixture of isomers) [Compound A2]	80%	98%	99%	–
CCN1OCC(NC(=O)c2ccc(C3=NOC(c4cc(Cl)cc(Cl)c4)(C(F)(F)F)C3)cc2C)C1=O (mixture of isomers) [Compound A18]	100%	100%	100%	–
Cc1cc(C2=NOC(c3cc(Cl)cc(Cl)c3)(C(F)(F)F)C2)ccc1C(=O)NC1CON(C)C1=O (mixture of isomers) [Compound A22]	98%	100%	100%	–
CCN1OC[C@@H](NC(=O)c2ccc(C3=NO[C@@](c4cc(Cl)cc(C(F)(F)F)c4)(C(F)(F)F)C3)c3ccccc23)C1=O [Compound A26]	83%	100%	100%	–
Cc1cc(C2=NO[C@@](c3cc(Cl)c(F)c(Cl)c3)(C(F)(F)F)C2)ccc1C(=O)N[C@@H]1CON(CC(F)(F)F)C1=O [Compound A14]	100%	100%	100%	–
Cc1cc(C2=NOC(c3cc(Cl)cc(Cl)c3)(C(F)(F)F)C2)ccc1C(=O)NC1CON(CC(F)F)C1=O (mixture of isomers) [Compound A20]	100%	100%	100%	–
CCN1OCC(NC(=O)c2ccc(C3=NOC(c4cc(Cl)c(Br)c(Cl)c4)(C(F)(F)F)C3)cc2C)C1=O (mixture of isomers) [Compound A7]	100%	100%	100%	–

Compound	Control/% ([1]; rate 12.5 ppm)	Control/% ([1]; rate 25 ppm)	Control/% ([1]; rate 50 ppm)	other results
CCN1OC[C@@H](NC(=O)c2ccc(C3=NO[C@@](c4cc(Cl)c(F)c(Cl)c4)(C(F)(F)F)C3)cc2Cl)C1=O [Compound A25]	100%	100%	100%	–
CCN1OC[C@@H](NC(=O)c2ccc(C3=NO[C@@](c4cc(Cl)cc(C(F)(F)F)c4)(C(F)(F)F)C3)cc2C)C1=O [Compound A15]	99%	99%	100%	–
CCN1OC[C@@H](NC(=O)c2ccc(C3=NO[C@@](c4cccc(C(F)(F)F)c4)(C(F)(F)F)C3)cc2C)C1=O [Compound A30]	93%	100%	98%	–
CCN1OC[C@@H](NC(=O)c2ccc(C3=NO[C@@](c4cc(Cl)c(Cl)c(Cl)c4)(C(F)(F)F)C3)cc2C(F)(F)F)C1=O [Compound A29]	55%	88%	100%	–
CCN1OCC(NC(=O)c2ccc(C3=NCC(c4cc(Cl)cc(Cl)c4)(C(F)(F)F)C3)cc2C)C1=O (stereo not drawn) [Compound B2]	15%	70%	88%	–
CCN1OCC(NC(=O)c2ccc(C3=NCC(c4cc(Cl)cc(Cl)c4)(C(F)(F)F)C3)cc2C)C1=O (mixture of isomers) [Compound B1]	0%	78%	90%	–
CCN1OC[C@@H](NC(=O)c2ccc(C3=NO[C@@](c4cc(Cl)cc(Cl)c4)(C(F)(F)F)C3)cc2C)C1=O [Compound A3]	100%	100%	100%	Control/% ([2]; application rate 0.05 ppm): 97%; Control/% ([2]; application rate 0.2 ppm): 100%; Control/% ([2]; application rate 0.8 ppm): 100%; Control/% ([3]; application rate 3 ppm): 90%; Control/% ([3]; application rate 12 ppm): 100%; Control/% ([3]; application rate 50 ppm): 100%; Control/% ([3]; application rate 200 ppm): 100%
CCN1OC[C@@H](NC(=O)c2ccc(C3=NO[C@@](c4cc(Cl)c(Cl)c(Cl)c4)(C(F)(F)F)C3)cc2Br)C1=O [Compound A33]	80%	98%	98%	–
Cc1cc(C2=NO[C@@](c3cc(Cl)cc(Cl)c3)(C(F)(F)F)C2)ccc1C(=O)N[C@@H]1CON(CC(F)(F)F)C1=O [Compound A9]	98%	100%	100%	Control/% ([2]; application rate 0.05 ppm): 43%; Control/% ([2]; application rate 0.2 ppm): 100%; Control/% ([2]; application rate 0.8 ppm): 100%; Control/% ([3]; application rate 3 ppm): 100%; Control/% ([3]; application rate 12 ppm): 100%; Control/% ([3]; application rate 50 ppm): 100%; Control/% ([3]; application rate 200 ppm): 100%
CCN1OC[C@@H](NC(=O)c2ccc(C3=NO[C@@](c4cc(Cl)c(F)c(Cl)c4)(C(F)(F)F)C3)cc2C)C1=O [Compound A24]	75%	85%	98%	–
CCN1OCC(NC(=O)c2ccc(C3=COC(c4cc(Cl)cc(Cl)c4)(C(F)(F)F)C3)cc2C)C1=O (mixture of isomers) [Compound C1]	0%	15%	95%	–
Cc1cc(C2=NO[C@@](c3cc(Cl)cc(Cl)c3)(C(F)(F)F)C2)ccc1C(=O)N[C@@H]1CON(CC(F)F)C1=O [Compound A12]	100%	100%	100%	–
Cc1cc(C2=NOC(c3cc(Cl)cc(Cl)c3)(C(F)(F)F)C2)ccc1C(=O)NC1CON(CC(F)(F)F)C1=O (mixture of isomers) [Compound A19]	100%	100%	100%	–
CCN1OCC(NC(=O)c2ccc(C3=NOC(c4cc(Cl)c(F)c(Cl)c4)(C(F)(F)F)C3)cc2C)C1=O (mixture of isomers) [Compound A21]	–	–	100%	–
CCN1OCC(NC(=O)c2ccc(C3=NOC(c4cc(F)cc(Cl)c4)(C(F)(F)F)C3)cc2C)C1=O (mixture of isomers) [Compound A11]	80%	55%	100%	–
CCN1OCC(NC(=O)c2ccc(C3=NOC(c4cc(Cl)cc(Cl)c4)(C(F)(F)F)C3)cc2C)C1=O (mixture of isomers) [Compound A4]	88%	93%	100%	–
Cc1cc(C2=NOC(c3cc(Cl)c(Cl)c(Cl)c3)(C(F)(F)F)C2)ccc1C(=O)NC1CON(CC(F)(F)F)C1=O (mixture of isomers) [Compound A23]	90%	98%	100%	–
Cc1cc(C2=NOC(c3cc(Cl)cc(Cl)c3)(C(F)(F)F)C2)ccc1C(=O)NC1CON(C)C1=O (mixture of isomers) [Compound A1]	93%	93%	98%	–
